Measurements from ChEMBL document CHEMBL4321867, “Optimization of LpxC Inhibitor Lead Compounds Focusing on Efficacy and Formulation for High Dose Intravenous Administration” (J Med Chem, 2020).
≈ marks a conversion by molar mass, not a printed value.

Columns and labels:
[1] = test system: T1, UDP-3-O-acyl-N-acetylglucosamine deacetylase (Escherichia coli K-12), P0A725 [C125S]; conditions: 25 uM
T1 sequence (whole entry): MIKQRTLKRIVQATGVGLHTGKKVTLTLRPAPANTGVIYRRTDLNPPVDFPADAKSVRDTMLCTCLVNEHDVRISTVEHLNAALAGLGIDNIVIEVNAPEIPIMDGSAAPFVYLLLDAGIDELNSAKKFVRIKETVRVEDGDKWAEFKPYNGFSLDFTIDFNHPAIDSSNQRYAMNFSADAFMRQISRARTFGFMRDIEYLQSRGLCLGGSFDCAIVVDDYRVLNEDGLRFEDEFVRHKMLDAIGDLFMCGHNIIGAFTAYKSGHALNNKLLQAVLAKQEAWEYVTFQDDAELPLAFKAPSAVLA

[2] = test system: T2, UDP-3-O-acyl-N-acetylglucosamine deacetylase (Pseudomonas aeruginosa (strain ATCC 15692 / PAO1 / 1C / PRS 101 / LMG12228)), P47205 [C40S]; conditions: 25 uM
T2 sequence (whole entry): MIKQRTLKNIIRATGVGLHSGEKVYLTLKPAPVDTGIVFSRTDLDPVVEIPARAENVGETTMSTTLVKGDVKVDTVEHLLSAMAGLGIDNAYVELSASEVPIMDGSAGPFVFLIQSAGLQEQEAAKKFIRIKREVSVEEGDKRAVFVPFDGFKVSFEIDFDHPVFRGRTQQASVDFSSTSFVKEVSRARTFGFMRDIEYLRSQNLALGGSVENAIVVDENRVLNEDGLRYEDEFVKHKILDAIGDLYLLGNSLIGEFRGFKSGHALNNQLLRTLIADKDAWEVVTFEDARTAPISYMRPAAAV

[3] = in vivo; conditions: mouse, sc, 150 mg/kg
[4] = in vivo; conditions: Wistar, rat, iv, 50 mg/kg
[5] = physchem; conditions: n-octanol/phosphate buffer, pH 7.4
[6] = physchem
[7] = physchem; conditions: buffer, pH 4
[8] = physchem; conditions: buffer, pH 7
[9] = physchem; conditions: buffer, pH 9
[10] = in vitro; conditions: rat, hepatocytes
[11] = in vitro; conditions: rat, liver microsomes
[12] = in vitro; conditions: human, hepatocytes
[13] = in vitro; conditions: human, liver microsomes
[14] = in vitro; conditions: rat, plasma
[15] = physchem; conditions: 5% mannitol/water, pH 4.5
[16] = test system: Escherichia coli; assay: microbe, parasite or virus in culture; conditions: ATCC 25922
[17] = test system: Klebsiella pneumoniae; assay: microbe, parasite or virus in culture; conditions: T6474
[18] = test system: Pseudomonas aeruginosa; assay: microbe, parasite or virus in culture; conditions: ATCC 27853
[19] = test system: Citrobacter freundii; assay: microbe, parasite or virus in culture
[20] = test system: Klebsiella aerogenes; assay: microbe, parasite or virus in culture
[21] = test system: Enterobacter cloacae; assay: microbe, parasite or virus in culture
[22] = test system: Escherichia coli; assay: microbe, parasite or virus in culture
[23] = test system: Klebsiella oxytoca; assay: microbe, parasite or virus in culture
[24] = test system: Klebsiella pneumoniae; assay: microbe, parasite or virus in culture
[25] = test system: Morganella morganii; assay: microbe, parasite or virus in culture
[26] = test system: Proteus mirabilis; assay: microbe, parasite or virus in culture
[27] = test system: Serratia marcescens; assay: microbe, parasite or virus in culture
[28] = test system: Acinetobacter baumannii; assay: microbe, parasite or virus in culture
[29] = test system: Burkholderia cepacia; assay: microbe, parasite or virus in culture
[30] = test system: Haemophilus influenzae; assay: microbe, parasite or virus in culture
[31] = test system: Moraxella catarrhalis; assay: microbe, parasite or virus in culture
[32] = test system: Pseudomonas aeruginosa; assay: microbe, parasite or virus in culture
[33] = test system: Stenotrophomonas maltophilia; assay: microbe, parasite or virus in culture
[34] = in vivo; conditions: Wistar, rat, iv, 10 mg/kg

For `C[C@@](CCN1Cc2cc(C#CC#CC3CN(CCO)C3)cn2C1=O)(C(=O)NO)S(C)(=O)=O`, which deltaTm [1] is on record?
The deltaTm was 9.7 K.

What about the deltaTm [2] of the same compound?
Its deltaTm is 11.2 K.

What about the AUC(0-t) at 24 h [3] of the same compound?
Its AUC(0-t) at 24 h is 63200 ng·h/mL.

What about the clearance at 24 h [4] of the same compound?
Its clearance at 24 h is 28 mL/min/kg.

And the logD [5]?
The logD was 0.1.

What about the pKa [6] of the same compound?
The pKa was 7.9.

And the solubility at 24 h [7]?
The solubility at 24 h was greater than 780 µg/mL.

What about the solubility at 24 h [8] of the same compound?
The solubility at 24 h was greater than 780 µg/mL.

And the solubility at 24 h [9]?
Its solubility at 24 h is greater than 780 µg/mL.

And the hepatocyte CLint at 1 µM [10]?
Its hepatocyte CLint at 1 µM is 7.3 µL/min/1e6 cells.

And the microsomal CLint at 1 µM [11]?
Its microsomal CLint at 1 µM is 198 µL/min/mg.

What about the hepatocyte CLint at 1 µM [12] of the same compound?
The hepatocyte CLint at 1 µM was less than 2 µL/min/1e6 cells.

What about the microsomal CLint at 1 µM [13] of the same compound?
The microsomal CLint at 1 µM was 14 µL/min/mg.

And the fraction unbound at 1 µM [14]?
The fraction unbound at 1 µM was 0.301.

And the solubility [15]?
Its solubility is 30000 µg/mL (≈ 64900 µM).

And the MIC [16]?
The MIC was 0.5 µg/mL (≈ 1.08 µM).

What about the MIC [17] of the same compound?
Its MIC is 1 µg/mL (≈ 2.16 µM).

What about the MIC [18] of the same compound?
The MIC was 0.5 µg/mL (≈ 1.08 µM).

What about the MIC90 [19] of the same compound?
Its MIC90 is 1 µg/mL (≈ 2.16 µM).

And the MIC90 [20]?
Its MIC90 is 1 µg/mL (≈ 2.16 µM).

What about the MIC90 [21] of the same compound?
Its MIC90 is 4 µg/mL (≈ 8.65 µM).

What about the MIC90 [22] of the same compound?
Its MIC90 is 1 µg/mL (≈ 2.16 µM).

What about the MIC90 [23] of the same compound?
Its MIC90 is 4 µg/mL (≈ 8.65 µM).

And the MIC90 [24]?
The MIC90 was 2 µg/mL (≈ 4.32 µM).

What about the MIC90 [25] of the same compound?
The MIC90 was 1 µg/mL (≈ 2.16 µM).

What about the MIC90 [26] of the same compound?
Its MIC90 is 1 µg/mL (≈ 2.16 µM).

And the MIC90 [27]?
The MIC90 was 1 µg/mL (≈ 2.16 µM).

And the MIC90 [28]?
Its MIC90 is greater than 16 µg/mL.

What about the MIC90 [29] of the same compound?
The MIC90 was 16 µg/mL (≈ 34.6 µM).

And the MIC90 [30]?
Its MIC90 is no more than 0.03 µg/mL.

And the MIC90 [31]?
The MIC90 was greater than 16 µg/mL.

And the MIC90 [32]?
Its MIC90 is 2 µg/mL (≈ 4.32 µM).

And the MIC90 [33]?
Its MIC90 is greater than 16 µg/mL.

What does the source list for `CN(C)c1cc(NC(=O)CNC(C)(C)C)c(O)c2c1C[C@H]1C[C@H]3[C@H](N(C)C)C(O)=C(C(N)=O)C(=O)[C@@]3(O)C(O)=C1C2=O` [TIGECYCLINE]?
MIC90 [19]: 1 µg/mL (≈ 1.71 µM); MIC90 [20]: 1 µg/mL (≈ 1.71 µM); MIC90 [21]: 4 µg/mL (≈ 6.83 µM); MIC90 [22]: 1 µg/mL (≈ 1.71 µM); MIC90 [23]: 0.5 µg/mL (≈ 0.854 µM); MIC90 [24]: 4 µg/mL (≈ 6.83 µM); MIC90 [25]: 8 µg/mL (≈ 13.7 µM); MIC90 [26]: 4 µg/mL (≈ 6.83 µM); MIC90 [27]: 2 µg/mL (≈ 3.41 µM); MIC90 [28]: 16 µg/mL (≈ 27.3 µM); MIC90 [29]: > 16 µg/mL; MIC90 [30]: 0.25 µg/mL (≈ 0.427 µM); MIC90 [31]: 0.5 µg/mL (≈ 0.854 µM); MIC90 [32]: > 16 µg/mL; MIC90 [33]: 4 µg/mL (≈ 6.83 µM)

Which results are given for `C[C@@](CCN1Cc2cc(C#CC#CC3(N)CC3)cn2C1=O)(C(=O)NO)S(C)(=O)=O`?
deltaTm [1]: 10 K; deltaTm [2]: 11.6 K; AUC(0-t) at 24 h [3]: 44700 ng·h/mL; clearance at 24 h [34]: 29 mL/min/kg; logD [5]: 0.7; pKa [6]: 6.5; hepatocyte CLint at 1 µM [10]: 17 µL/min/1e6 cells; microsomal CLint at 1 µM [11]: 14 µL/min/mg; hepatocyte CLint at 1 µM [12]: < 2 µL/min/1e6 cells; microsomal CLint at 1 µM [13]: < 10 µL/min/mg; fraction unbound at 1 µM [14]: 0.111; MIC [16]: 0.25 µg/mL (≈ 0.597 µM); MIC [17]: 0.25 µg/mL (≈ 0.597 µM); MIC [18]: 0.5 µg/mL (≈ 1.19 µM)

For `C[C@@H](O)[C@H]1C(=O)N2C(C(=O)O)=C(SCCNC=N)C[C@H]12` [IMIPENEM ANHYDROUS], which MIC90 [19] is on record?
The MIC90 was 1 µg/mL (≈ 3.34 µM).

And the MIC90 [20]?
Its MIC90 is 2 µg/mL (≈ 6.68 µM).

And the MIC90 [21]?
Its MIC90 is 1 µg/mL (≈ 3.34 µM).

And the MIC90 [22]?
Its MIC90 is 0.25 µg/mL (≈ 0.835 µM).

What about the MIC90 [23] of the same compound?
The MIC90 was 0.5 µg/mL (≈ 1.67 µM).

And the MIC90 [24]?
The MIC90 was greater than 16 µg/mL.

What about the MIC90 [25] of the same compound?
The MIC90 was 16 µg/mL (≈ 53.4 µM).

What about the MIC90 [26] of the same compound?
The MIC90 was 4 µg/mL (≈ 13.4 µM).

And the MIC90 [27]?
Its MIC90 is 1 µg/mL (≈ 3.34 µM).

And the MIC90 [28]?
Its MIC90 is greater than 16 µg/mL.

And the MIC90 [29]?
The MIC90 was greater than 16 µg/mL.

And the MIC90 [30]?
The MIC90 was 0.5 µg/mL (≈ 1.67 µM).

And the MIC90 [31]?
Its MIC90 is 0.06 µg/mL (≈ 0.2 µM).

And the MIC90 [32]?
Its MIC90 is greater than 16 µg/mL.

And the MIC90 [33]?
Its MIC90 is greater than 16 µg/mL.
